Data from patent publication EP4653431A1, “PYRAZOLE DERIVATIVE, AND PHARMACEUTICALLY ACCEPTABLE SALT, STEREOISOMER, PHARMACEUTICAL COMPOSITION AND USE THEREOF” (Starg (Wuhan) Pharmaceutical Technology Co., Ltd, priority 2023, dated 2024).
Where a name gives a salt, the structure may show the parent alone. Read-outs that look alike come from different tables or passages of the source. Blank lines part the entries; values can stand above or below the compound they belong to.

Tests used:
[1] = biological target: T1, CDK2/cyclin E1 (Homo sapiens, UniProt P24941); test: In vitro CDK2/cyclinE enzyme activity assay (TR-FRET); assay type: biochemical; details: CDK2/cyclin E1, 1 mM ATP, 120 min at 25 °C
T1 construct: purchased SignalChem
Method: CDK2/cyclin E1 was purchased from SignalChem. Ulight-4E-BP1 peptide, Eu-anti-phospho-tyrosine antibody, and 1X detection buffer solution were purchased from PerkinElmer. High-purity adenosine triphosphate (ATP) was purchased from Promega. Ethylenediaminetetraacetic acid (EDTA) was purchased from Sigma. Nivo multimode plate reader (PerkinElmer) was used.
Preparation of Kinase Buffer Solution: The kinase buffer solution consisted 50 mM HEPES, 1 mM EDTA, 10 mM MgCl2, and 0.01% Brij-35, with pH of 7.4. 2.38 g HEPES, 58 mg EDTA, 406 mg MgCl2, and 20 mg Brij-35 were added to 200 mL buffer, and the pH was adjusted to 7.4.
(§1) The stop solution was prepared by mixing 100 µL of 1 M EDTA stock solution with […] of 1X detection buffer solution and 1725 µL of distilled water.
The enzyme, Ulight-4E-BP1 peptide, ATP, and the inhibitor were diluted using the kinase buffer solution. The Eu-anti-phospho-tyrosine antibody was diluted to a concentration of 8 nM/L using the detection buffer solution. The test compound was serially diluted 5-fold using a multichannel pipette to the 8th concentration, i.e., from 4 µM to 0.0512 nM. The final concentration of DMSO was 4%, and the experiment was set up with duplicate wells. 2.5 µL of each gradient concentration of the inhibitor, 5 µL of CDK2/cyclin E1 enzyme (10 ng), and 2.5 µL of a mixture of substrate and ATP (4 mM ATP, 100 nM Ulight-4E-BP1 peptide) were added to a microplate, resulting in a final concentration gradient of the compound from 1 µM to 0.0128 nM, with final ATP and substrate concentrations of 1 mM and 25 nM, respectively. The reaction system was incubated at 25 °C for 120 minutes. After the reaction, 5 µL of the stop solution was added to each well, and further reacted at 25 °C for 5 minutes to terminate the reaction. Then 5 µL of Eu-anti-phospho-tyrosine antibody dilution was added to each well, and the mixture was reacted at 25 °C for 60 minutes. Data were collected using the PerkinElmer Nivo multimode plate reader in TR-FRET mode (excitation wavelength: 320 nm; emission wavelengths: 615 nm and 665 nm).
(§2) The raw data were converted to inhibition rates according to the equation (Sample-Min)/(Max-Min)×100%. The IC50 value was obtained by fitting the data to a four-parameter curve (using log(inhibitor) vs. response -- Variable slope model in GraphPad Prism).

[2] = biological target: T2, CDK1/cyclin B1 (Homo sapiens, UniProt P06493); test: In vitro CDK1/cyclin B1 enzyme activity assay (TR-FRET); assay type: biochemical
T2 construct: purchased Carna Biosciences
T2 sequence (P06493 whole entry): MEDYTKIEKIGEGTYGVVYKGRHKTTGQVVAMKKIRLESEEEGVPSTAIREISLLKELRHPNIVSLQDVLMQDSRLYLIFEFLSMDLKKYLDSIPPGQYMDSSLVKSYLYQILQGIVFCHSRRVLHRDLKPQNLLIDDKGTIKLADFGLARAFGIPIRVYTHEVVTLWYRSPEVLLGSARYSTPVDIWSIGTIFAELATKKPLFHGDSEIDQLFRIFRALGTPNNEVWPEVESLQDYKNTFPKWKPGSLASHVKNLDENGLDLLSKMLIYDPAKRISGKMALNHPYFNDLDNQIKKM
T2 sequence (P14635 whole entry partner): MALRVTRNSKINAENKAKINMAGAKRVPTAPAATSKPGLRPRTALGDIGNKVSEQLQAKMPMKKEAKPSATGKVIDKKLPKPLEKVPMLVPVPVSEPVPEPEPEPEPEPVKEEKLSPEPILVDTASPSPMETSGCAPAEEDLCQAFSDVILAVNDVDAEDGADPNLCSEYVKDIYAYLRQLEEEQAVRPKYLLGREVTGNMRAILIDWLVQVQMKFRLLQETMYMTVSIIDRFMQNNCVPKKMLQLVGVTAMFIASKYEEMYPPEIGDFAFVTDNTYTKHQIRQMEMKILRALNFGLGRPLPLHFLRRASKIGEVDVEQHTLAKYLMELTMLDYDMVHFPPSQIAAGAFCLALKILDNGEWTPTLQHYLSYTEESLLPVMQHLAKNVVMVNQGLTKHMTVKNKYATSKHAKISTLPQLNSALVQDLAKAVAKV
Method: CDK1/cyclin B1 was purchased from Carna Biosciences. Ulight-4E-BP1 peptide, Eu-anti-phospho-tyrosine antibody, and 1X detection buffer were purchased from PerkinElmer. High-purity ATP was purchased from Promega. EDTA was purchased from Sigma. Nivo multimode plate reader (PerkinElmer) was used.
Preparation of Kinase Buffer Solution: The kinase buffer solution consisted 50 mM HEPES, 1 mM EDTA, 10 mM MgCl2, and 0.01% Brij-35, with pH of 7.4.
as §1
The enzyme, Ulight-4E-BP1 peptide, ATP, and the inhibitor were diluted using the kinase buffer solution.
The Eu-anti-phospho-tyrosine antibody was diluted to a concentration of 8 nM/L using the detection buffer solution.
The final concentration of DMSO was 4%, and the experiment was set up with duplicate wells. […] The reaction system was incubated at 25 °C for 60 minutes. After the reaction, 5 µL of the stop solution was added to each well, and further reacted at 25 °C for 5 minutes to terminate the reaction. Then 5 µL of Eu-anti-phospho-tyrosine antibody dilution was added to each well, and the mixture was incubated at 25 °C for 60 minutes.
The IC50 value was obtained by fitting the data to a four-parameter curve (using log(inhibitor) vs. response -- Variable slope model in GraphPad Prism).

[3] = tested on: OVCAR-3 cells; test: In vitro OVCAR-3 cell viability assay (CellTiter-Glo); assay type: cell-based; details: Homo sapiens, OVCAR-3, 168 h, 7 days incubation
Method: (§3) 1640 medium, fetal bovine serum, and penicillin/streptomycin antibiotics were purchased from Wisent. CellTiter-Glo (cell viability chemiluminescence assay reagent) was purchased from Promega. The OVCAR-3 cell line was purchased from Nanjing Cobioer Biosciences Co., Ltd. Envision multimode plate reader (PerkinElmer) was used.
OVCAR-3 cells were seeded into a white 384-well plate, with 40 µL of cell suspension containing 300 OVCAR-3 cells per well. The cell plate was incubated overnight in a CO2 incubator.
(§4) The test compound was serially diluted 5-fold using a multichannel pipette to the 8th concentration, i.e., from 2000 µM to 0.00512 µM. The experiment was set up with duplicate wells. 78 µL of culture medium was added to an intermediate plate, and 2 µL per well of the gradient-diluted compound was transferred to the corresponding position in the intermediate plate. After mixing, 10 µL per well of the mixture was transferred to the cell plate. The concentration range of the compound transferred to the cell plate was from 10 µM to 0.026 nM. The cell plate was incubated in a CO2 incubator for 7 days. Another cell plate was prepared, and the signal value was read on the day of compound addition to serve as the maximum value (Max in the equation below) for data analysis. 10 µL per well of CellTiter-Glo reagent was added to the cell plate, and the cell plate was incubated at room temperature for 10 minutes to stabilize the luminescence signal. The signal was read using the multimode plate reader.
10 µL per well of CellTiter-Glo reagent was added to the cell plate, and the cell plate was incubated at room temperature for 10 minutes to stabilize the luminescence signal. The signal was read using the multimode plate reader.
as §2, with “using” for “according to”, “Prism). Table 1 provides the inhibitory activity of the compounds of the present application against OVCAR-3 cell proliferation.” for “Prism).”

[4] = tested on: T-47D cells; test: In vitro T-47D cell viability assay (CellTiter-Glo); assay type: cell-based; details: Homo sapiens, T47D, 168 h, 7 days incubation
Method: as §3, with “T-47D” for “OVCAR-3”
T-47D cells were seeded into a white 384-well plate, with 40 µL of cell suspension containing 300 T-47D cells per well. The cell plate was incubated overnight in a CO2 incubator.
as §4, with “using the Envision multimode plate” for “using the multimode plate”
10 µL per well of CellTiter-Glo reagent was added to the cell plate, and the cell plate was incubated at room temperature for 10 minutes to stabilize the luminescence signal. The signal was read using the Envision multimode plate reader.
as §2, with “using” for “according to”, “Prism). Table 1 provides the inhibitory activity of the compounds of the present application against T-47D cell proliferation.” for “Prism).”

[5] = Pharmacokinetic study, oral and intravenous administration in mice; design: species or system ICR mice; details: mouse, in vivo, ICR male mice; for AUC(0-t): read-out: Area under plasma concentration-time curve AUC0-last
Method: This study used ICR male mice as test animals. The plasma concentrations of the test compounds and the reference compound in mice were quantitatively determined at different time points using the LC-MS/MS method following intravenous injection or oral administration to evaluate the pharmacokinetic characteristics of the test compounds in mice.
ICR mice (male, 20-30 g, 6-8 weeks old, Beijing Charles River).
A clear solution of the test compound was administered to ICR mice (fasted overnight or fed) via tail vein injection or oral gavage. For intravenous injection, blood samples (50 µL) were collected via cheek puncture at 0 h (pre-dose) and at 0.083, 0.25, 0.5, 1, 2, 4, 6, 8, and 24 h post-dose into anticoagulant tubes containing sodium heparin. The mixtures were thoroughly vortexed at 4 °C and centrifuged at 6000 rpm for 3 minutes. For oral gavage, blood samples were collected via cheek puncture at 0 h (pre-dose) and at 0.083, 0.25, 1, 2, 4, 6, 8, and 24 h post-dose into anticoagulant tubes containing sodium heparin. The mixtures were vortexed thoroughly, and centrifuged at 6000 rpm for 3 minutes. Plasma drug concentrations were determined using the LC-MS/MS method. Pharmacokinetic parameters were calculated using Phoenix WinNonlin 8.2.0 pharmacokinetic software with a non-compartmental model and linear-logarithmic trapezoidal rule.

[6] = CDK1/cyclin B1, 1 mM ATP, 60 min at 25 °C, Table 1, read-out: CDK1 IC50
[7] = exact values stated in the text below Table 1, read-out: IC50 against CDK1

Compound: CNOCc1nn2ccnc(Nc3cc([C@H]4CC[C@@H](OC(=O)NC(C)C)C4)[nH]n3)c2c1F [Hydrochloride salt of Compound 7]
IC50 [1]: 9.5 nM
IC50 [2, 6]: > 1000 nM
IC50 [2, 7]: > 10000 nM
IC50 [3]: 140 nM
IC50 [4]: 492 nM

Compound: COCc1cc(C(=O)Nc2cc([C@H]3CC[C@@H](OC(=O)NC(C)C)C3)[nH]n2)n(C)n1 [PF-07104091, reference compound]
IC50 [2, 6]: 521 nM
IC50 [3]: 172 nM
IC50 [4]: 377 nM
Vd ([5]; intravenous administration, 5 mg/Kg, read-out: Apparent volume of distribution Vdss): 11.8 L/kg
AUC(0-t) ([5]; intravenous administration, 5 mg/Kg): 1640 ng·h/mL
clearance ([5]; intravenous administration, 5 mg/Kg, read-out: Clearance CL): 50.3 mL/min/kg
half-life ([5]; intravenous administration, 5 mg/Kg, read-out: Half-life T1/2 (converted)): 161 min
bioavailability ([5]; oral 30 mg/Kg vs intravenous 5 mg/Kg, read-out: Bioavailability F): 76.2%
AUC(0-t) ([5]; oral administration, 30 mg/Kg): 7520 ng·h/mL
Cmax ([5]; oral administration, 30 mg/Kg, read-out: Peak concentration Cmax): 6320 ng/mL
Tmax ([5]; oral administration, 30 mg/Kg, read-out: Time to peak Tmax): 15 min

Further lines, results first:

IC50 [1]: 7.6 nM
IC50 [2, 6]: > 1000 nM
IC50 [3]: 75 nM
IC50 [4]: 239 nM
Compound: C=NOCc1nn2ccnc(Nc3cc([C@H]4CC[C@@H](OC(=O)NC(C)C)C4)[nH]n3)c2c1F [Compound 4]

IC50 [1]: 3.8 nM
IC50 [2, 6]: > 1000 nM
IC50 [2, 7]: 1910 nM
IC50 [3]: 90 nM
IC50 [4]: 293 nM
Compound: CONCc1nn2ccnc(Nc3cc([C@H]4CC[C@@H](OC(=O)NC(C)C)C4)[nH]n3)c2c1C [Formate salt of compound 1]

IC50 [1]: 4.2 nM
IC50 [2, 6]: > 1000 nM
IC50 [2, 7]: 1350 nM
IC50 [3]: 187 nM
IC50 [4]: 383 nM
Compound: CNOCc1nn2ccnc(Nc3cc([C@H]4CC[C@@H](OC(=O)NC(C)C)C4)[nH]n3)c2c1C [Hydrochloride salt of compound 3]
